Here are results for one compound from US8029768B2, “Treatment of respiratory diseases” (Sosei R&D Ltd., priority 2000, dated 2011).

Each structure is given as a SMILES string.

For one data set, the system named is asthma. As to conditions: inhaled, Walker et al. 1987; cited from earlier work.
The conditions of data set [1]: about 1 mg sample on sinter, 195 ml water reservoir, FIG. 1.
Experimental: A 195 ml reservoir was used in the dissolution test. The reservoir was filled with water and contained a sampling inlet port and a sampling outlet port. A sintered disk of approximately 50 mm diameter and 3 mm depth was placed in an opening on top of the reservoir, in contact with the water. A known mass (about 1 mg) of the sample to be tested was dropped onto the sinter and a timer started. At various times, 1 ml samples were removed from the reservoir and immediately replaced with 1 ml of water to maintain the volume in the system. The samples were analysed in a Cecil Aquarius CE7200 ultraviolet spectrophotometer at a wavelength of 200 nm. The concentration of the samples was calculated with a previously prepared calibration graph and the concentration versus time was plotted.

`C[N+]1(C)CCC(OC(=O)C(O)(c2ccccc2)C2CCCC2)C1` (stereo not shown) [glycopyrrolate]: in the data set with asthma, the “duration of effective treatment” value is “up to 12 hours” and the “duration of effective treatment that appears to be maximal” value was “up to 8 hours”. Moreover, the “time at which the maximum concentration is achieved” value in data set [1] amounted to 10 min. In data set [1] (first time point 5 minutes), the “concentration of glycopyrrolate in the reservoir at 5 minutes” value was “greater than 10 mg/l”.
